# Activity calls are given as the source filed them. The rule behind the calls is not given here.
# Experiments:
# CHO [1] = assay: Cytotoxicity against CHO cells transfected with CYP1A1 assessed as growth inhibition after 96 hrs by MTT assay; assay type: functional, cell-based; details: Cricetulus griseus
# CHO [2] = assay: Cytotoxicity against wild type CHO cells assessed as growth inhibition after 96 hrs by MTT assay; assay type: functional, cell-based; details: Cricetulus griseus
# Cytochrome P450 1A1 [3] = biological target: T1, Cytochrome P450 1A1 (Homo sapiens, UniProt P04798); assay: Drug level in presence of CYP1A1 (unknown origin) expressed in bactosomes treated with 1-amino-3-methyl-1-oxobut-3-en-2-yl 3-methoxy-5-methyl-1-naphthoate measured for 180 mins by LC/MS/MS analysis; assay type: ADME; details: recombinant enzyme, 3 h
# T1 sequence (P04798 whole entry): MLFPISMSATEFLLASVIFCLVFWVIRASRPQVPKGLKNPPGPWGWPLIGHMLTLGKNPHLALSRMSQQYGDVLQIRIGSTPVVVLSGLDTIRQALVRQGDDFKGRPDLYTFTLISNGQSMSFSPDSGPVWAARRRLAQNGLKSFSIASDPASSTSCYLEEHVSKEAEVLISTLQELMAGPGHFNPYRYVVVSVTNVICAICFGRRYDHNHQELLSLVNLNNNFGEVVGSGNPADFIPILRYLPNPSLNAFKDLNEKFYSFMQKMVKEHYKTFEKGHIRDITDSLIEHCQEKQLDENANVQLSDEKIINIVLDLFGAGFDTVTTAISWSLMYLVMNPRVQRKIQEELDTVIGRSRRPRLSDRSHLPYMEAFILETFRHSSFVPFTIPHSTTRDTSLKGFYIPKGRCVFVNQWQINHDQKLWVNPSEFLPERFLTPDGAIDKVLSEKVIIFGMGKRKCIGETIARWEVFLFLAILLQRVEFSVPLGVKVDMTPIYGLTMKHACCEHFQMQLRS
# Cytochrome P450 1B1 [4] = biological target: T2, Cytochrome P450 1B1 (Homo sapiens, UniProt Q16678); assay: Drug level in presence of CYP1B1 (unknown origin) expressed in bactosomes treated with 1-amino-3-methyl-1-oxobut-3-en-2-yl 3-methoxy-5-methyl-1-naphthoate measured for 180 mins by LC/MS/MS analysis; assay type: ADME; details: recombinant enzyme, 3 h
# T2 sequence (Q16678 whole entry): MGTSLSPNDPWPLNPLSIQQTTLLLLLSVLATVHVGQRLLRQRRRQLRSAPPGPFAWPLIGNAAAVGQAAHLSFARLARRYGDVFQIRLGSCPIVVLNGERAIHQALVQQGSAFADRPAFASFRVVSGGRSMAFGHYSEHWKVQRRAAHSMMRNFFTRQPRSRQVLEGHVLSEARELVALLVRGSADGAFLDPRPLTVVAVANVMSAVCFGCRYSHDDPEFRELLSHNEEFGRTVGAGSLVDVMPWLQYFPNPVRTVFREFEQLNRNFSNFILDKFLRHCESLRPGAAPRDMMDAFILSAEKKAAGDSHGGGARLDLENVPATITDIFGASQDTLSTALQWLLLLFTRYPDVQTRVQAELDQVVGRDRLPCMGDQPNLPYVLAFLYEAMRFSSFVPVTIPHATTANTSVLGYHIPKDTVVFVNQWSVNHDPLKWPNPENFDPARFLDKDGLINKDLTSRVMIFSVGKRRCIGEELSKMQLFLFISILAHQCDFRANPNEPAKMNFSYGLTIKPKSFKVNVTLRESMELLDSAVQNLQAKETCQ
# Cytochrome P450 3A4 [5] = biological target: T3, Cytochrome P450 3A4 (Homo sapiens, UniProt P08684); assay: Drug level in presence of CYP3A4 (unknown origin) expressed in bactosomes treated with 1-amino-3-methyl-1-oxobut-3-en-2-yl 3-methoxy-5-methyl-1-naphthoate measured for 180 mins by LC/MS/MS analysis; assay type: ADME; details: recombinant enzyme, 3 h
# CHO [6] = assay: Induction of DNA damage in wild type CHO cells assessed as DNA interstrand cross-links by measuring decrease in mean tail moment at 50 uM after 1 hr by alkaline comet assay in absence of CYP3A4 bactosomes; assay type: functional, cell-based; details: Cricetulus griseus
# CHO [7] = assay: Induction of DNA damage in wild type CHO cells assessed as DNA single strand breaks at 50 uM after 1 hr by alkaline comet assay in presence of CYP3A4 expressed in bactosomes; assay type: functional, cell-based; details: Cricetulus griseus
# SGC-7901 [8] = assay: Cytotoxicity against human SGC7901 cells expressing CYP1A1 mRNA assessed as growth inhibition after 96 hrs by MTT assay; assay type: functional, cell-based
# SW480 = assay: Cytotoxicity against human SW480 cells transfected with CYP2W1 assessed as growth inhibition at 0.001 to 100 uM after 96 hrs by MTT assay; assay type: functional, cell-based
# CHO [9] = assay: Potentiation factor, ratio of IC50 for wild type CHO cells in absence of CYP1A2 expressed in bactosomes to IC50 for wild type CHO cells in presence of CYP1A2 expressed in bactosomes; assay type: functional, Cricetulus griseus
# CHO [10] = assay: Potentiation factor, ratio of IC50 for wild type CHO cells in absence of CYP1A1 expressed in bactosomes to IC50 for wild type CHO cells in presence of CYP1A1 expressed in bactosomes; assay type: functional, Cricetulus griseus
# CHO [11] = assay: Potentiation factor, ratio of IC50 for wild type CHO cells in absence of CYP1B1 expressed in bactosomes to IC50 for wild type CHO cells in presence of CYP1B1 expressed in bactosomes; assay type: functional, Cricetulus griseus
# CHO [12] = assay: Cytotoxicity against wild type CHO cells assessed as growth inhibition preincubated with CYP1B1 expressed in bactosomes for 1 hr followed by cell addition measured after 96 hrs by MTT assay; assay type: functional, cell-based; details: Cricetulus griseus
# Cytochrome P450 1B1 [13] = biological target: T2, Cytochrome P450 1B1; assay: Drug metabolism assessed as CYP1B1 (unknown origin) expressed in bactosomes-mediated (1R)-2-amino-1-(2-methyloxiran-2-yl)-2-oxoethyl 3-methoxy-5-methyl-1-naphthoate/(1S)-2-amino-1-(2-methyloxiran-2-yl)-2-oxoethyl 3-methoxy-5-methyl-1-naphthoate formation measured for 180 mins by LC/MS/MS analysis; assay type: ADME; details: recombinant enzyme, 3 h
# Cytochrome P450 1A1 [14] = biological target: T1, Cytochrome P450 1A1; assay: Drug metabolism assessed as CYP1A1 (unknown origin) expressed in bactosomes-mediated (1R)-2-amino-1-(2-methyloxiran-2-yl)-2-oxoethyl 3-methoxy-5-methyl-1-naphthoate formation measured for 180 mins by LC/MS/MS analysis; assay type: ADME; details: recombinant enzyme, 3 h
# MKN-45 [15] = assay: Cytotoxicity against human MKN45 cells expressing CYP3A4 mRNA assessed as growth inhibition after 96 hrs by MTT assay; assay type: functional, cell-based
# CHO [16] = assay: Induction of DNA damage in wild type CHO cells assessed as DNA interstrand cross-links by measuring decrease in mean tail moment at 50 uM after 1 hr by alkaline comet assay in presence of CYP3A4 expressed in bactosomes; assay type: functional, cell-based; details: Cricetulus griseus
# CHO [17] = assay: Potentiation factor, ratio of IC50 for wild type CHO cells in absence of CYP2D6 expressed in bactosomes to IC50 for wild type CHO cells in presence of CYP2D6 expressed in bactosomes; assay type: functional, Cricetulus griseus
# CHO [18] = assay: Cytotoxicity against wild type CHO cells assessed as growth inhibition preincubated with CYP2D6 expressed in bactosomes for 1 hr followed by cell addition measured after 96 hrs by MTT assay; assay type: functional, cell-based; details: Cricetulus griseus
# MKN-45 [19] = assay: Cytotoxicity against human MKN45 cells expressing CYP1A1 protein assessed as growth inhibition after 96 hrs by MTT assay; assay type: functional, cell-based
# CHO [20] = assay: Induction of DNA damage in wild type CHO cells assessed as DNA single strand breaks at 50 uM after 1 hr by alkaline comet assay in absence of CYP3A4 expressed in bactosomes; assay type: functional, cell-based; details: Cricetulus griseus
# MKN-45 [21] = assay: Cytotoxicity against human MKN45 cells expressing CYP1A1 mRNA assessed as growth inhibition after 96 hrs by MTT assay; assay type: functional, cell-based
# CHO [22] = assay: Cytotoxicity against wild type CHO cells assessed as growth inhibition preincubated with CYP1A1 expressed in bactosomes for 1 hr followed by cell addition measured after 96 hrs by MTT assay; assay type: functional, cell-based; details: Cricetulus griseus
# MKN-45 [23] = assay: Cytotoxicity against human MKN45 cells expressing CYP3A4 protein assessed as growth inhibition after 96 hrs by MTT assay; assay type: functional, cell-based
# CHO [24] = assay: Induction of DNA damage in wild type CHO cells assessed as DNA double strand breaks by measuring increase in mean tail moment at 50 uM after 1 hr by neutral comet assay in presence of CYP3A4 expressed in bactosomes; assay type: functional, cell-based; details: Cricetulus griseus
# SGC-7901 [25] = assay: Cytotoxicity against human SGC7901 cells expressing CYP3A4 protein assessed as growth inhibition after 96 hrs by MTT assay; assay type: functional, cell-based
# CHO [26] = assay: Cytotoxicity against wild type CHO cells assessed as growth inhibition preincubated with CYP3A4 expressed in bactosomes for 1 hr followed by cell addition measured after 96 hrs by MTT assay; assay type: functional, cell-based; details: Cricetulus griseus
# CHO [27] = assay: Cytotoxicity against wild type CHO cells assessed as growth inhibition preincubated with CYP1A2 expressed in bactosomes for 1 hr followed by cell addition measured after 96 hrs by MTT assay; assay type: functional, cell-based; details: Cricetulus griseus
# Cytochrome P450 3A4 [28] = biological target: T3, Cytochrome P450 3A4; assay: Drug metabolism assessed as CYP3A4 (unknown origin) expressed in bactosomes-mediated (1S)-2-amino-1-(2-methyloxiran-2-yl)-2-oxoethyl 3-methoxy-5-methyl-1-naphthoate formation measured for 180 mins by LC/MS/MS analysis; assay type: ADME; details: recombinant enzyme, 3 h
# SGC-7901 [29] = assay: Cytotoxicity against human SGC7901 cells expressing CYP1A1 protein assessed as growth inhibition after 96 hrs by MTT assay; assay type: functional, cell-based
# SGC-7901 [30] = assay: Cytotoxicity against human SGC7901 cells expressing CYP3A4 mRNA assessed as growth inhibition after 96 hrs by MTT assay; assay type: functional, cell-based
# CHO [31] = assay: Induction of DNA damage in wild type CHO cells assessed as DNA double strand breaks by measuring increase in mean tail moment at 50 uM after 1 hr by neutral comet assay in absence of CYP3A4 expressed in bactosomes; assay type: functional, cell-based; details: Cricetulus griseus
# CHO [32] = assay: Potentiation factor, ratio of IC50 for wild type CHO cells in absence of CYP3A4 expressed in bactosomes to IC50 for wild type CHO cells in presence of CYP3A4 expressed in bactosomes; assay type: functional, Cricetulus griseus
# T3 sequence (P08684 whole entry): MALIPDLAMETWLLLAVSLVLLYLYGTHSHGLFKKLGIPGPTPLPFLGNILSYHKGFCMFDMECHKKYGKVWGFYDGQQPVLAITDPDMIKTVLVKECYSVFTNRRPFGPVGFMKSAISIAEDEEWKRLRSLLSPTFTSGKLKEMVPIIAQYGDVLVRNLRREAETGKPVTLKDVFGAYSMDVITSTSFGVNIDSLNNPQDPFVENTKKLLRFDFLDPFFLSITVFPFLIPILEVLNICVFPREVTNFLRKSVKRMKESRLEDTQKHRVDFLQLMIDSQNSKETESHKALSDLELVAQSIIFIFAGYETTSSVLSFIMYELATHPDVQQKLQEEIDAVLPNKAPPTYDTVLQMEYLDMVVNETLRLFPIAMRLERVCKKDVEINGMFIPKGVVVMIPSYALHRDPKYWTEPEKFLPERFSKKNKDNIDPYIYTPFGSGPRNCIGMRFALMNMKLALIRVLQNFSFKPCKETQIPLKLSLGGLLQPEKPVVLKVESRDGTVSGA
structure (smiles),measurement,setting,value
Cc1ccc(C(=O)O[C@H](C(N)=O)C2(C)CO2)c2ccccc12 (some centres not stated),IC50,CHO [1],3 µM
same,IC50,CHO [2],6 µM
C=C(C)[C@@H](OC(=O)c1ccc(OC)c2ccc(OC)cc12)C(N)=O,IC50,CHO [1],> 100 µM
same,IC50,CHO [2],> 100 µM
CC1([C@H](OC(=O)c2cccc3ccccc23)C(N)=O)CO1 (some centres not stated),IC50,CHO [1],5 µM
same,IC50,CHO [2],10 µM
Cc1ccc(C(=O)O[C@@H](C(N)=O)C2(C)CO2)c2ccccc12 (some centres not stated),IC50,CHO [1],9 µM
same,IC50,CHO [2],5 µM
CC1([C@H](OC(=O)c2ccc(F)c3ccccc23)C(N)=O)CO1 (some centres not stated),IC50,CHO [1],3 µM
same,IC50,CHO [2],7 µM
COc1ccc2c(OC)ccc(C(=O)O[C@H](C(N)=O)C3(C)CO3)c2c1 (some centres not stated),IC50,CHO [1],3 µM
same,IC50,CHO [2],6 µM
COc1cc(C(=O)O[C@@H](C(N)=O)C2(C)CO2)c2cccc(C)c2c1 (some centres not stated),IC50,CHO [1],6 µM
same,Drug metabolism,Cytochrome P450 1A1 [3],metabolite_detected
same,IC50,CHO [2],5.7 µM
same,Drug metabolism,Cytochrome P450 1B1 [4],metabolite_detected
COc1cc(C(=O)O[C@H](C(N)=O)C2(C)CO2)c2cccc(C)c2c1 (some centres not stated),IC50,CHO [1],3.2 µM
same,IC50,CHO [2],2.8 µM
same,Drug metabolism,Cytochrome P450 1B1 [4],metabolite_detected
same,Drug metabolism,Cytochrome P450 3A4 [5],metabolite_detected
C=C(C)[C@@H](OC(=O)c1cc(OC)cc2c(C)cccc12)C(N)=O,IC50,CHO [1],6.3 µM
same,Activity,CHO [6],inactive
same,Activity,CHO [7],Active
same,growth inhibition (GI),SGC-7901 [8],Dose-dependent effect
same,growth inhibition (GI),SW480,inactive
same,IC50,CHO [2],81.6 µM
same,Ratio IC50,CHO [9],4
same,Ratio IC50,CHO [10],5.8
same,Ratio IC50,CHO [11],7
same,IC50,CHO [12],11.8 µM
same,Drug metabolism,Cytochrome P450 1B1 [13],metabolite_detected
same,Drug metabolism,Cytochrome P450 1A1 [14],metabolite_detected
same,growth inhibition (GI),MKN-45 [15],Dose-dependent effect
same,Activity,CHO [16],Active
same,Ratio IC50,CHO [17],2.9
same,IC50,CHO [18],28.3 µM
same,growth inhibition (GI),MKN-45 [19],Dose-dependent effect
same,Activity,CHO [20],inactive
same,growth inhibition (GI),MKN-45 [21],Dose-dependent effect
same,IC50,CHO [22],14.2 µM
same,growth inhibition (GI),MKN-45 [23],Dose-dependent effect
same,Activity,CHO [24],inactive
same,growth inhibition (GI),SGC-7901 [25],Dose-dependent effect
same,IC50,CHO [26],3.34 µM
same,IC50,CHO [27],20.3 µM
same,Drug metabolism,Cytochrome P450 3A4 [28],metabolite_detected
same,growth inhibition (GI),SGC-7901 [29],Dose-dependent effect
same,growth inhibition (GI),SGC-7901 [30],Dose-dependent effect
same,Activity,CHO [31],inactive
same,Ratio IC50,CHO [32],24.4
COc1ccc2c(OC)ccc(C(=O)O[C@@H](C(N)=O)C3(C)CO3)c2c1 (some centres not stated),IC50,CHO [1],9 µM
same,IC50,CHO [2],3 µM
C=C(C)[C@@H](OC(=O)c1ccc(F)c2ccccc12)C(N)=O,IC50,CHO [1],> 100 µM
same,IC50,CHO [2],> 100 µM
C=C(C)[C@@H](OC(=O)c1cccc2ccccc12)C(N)=O,IC50,CHO [1],> 100 µM
same,IC50,CHO [2],> 100 µM
CC1([C@@H](OC(=O)c2cccc3ccccc23)C(N)=O)CO1 (some centres not stated),IC50,CHO [1],9 µM
same,IC50,CHO [2],10 µM
C=C(C)[C@@H](OC(=O)c1ccc(C)c2ccccc12)C(N)=O,IC50,CHO [1],> 100 µM
same,IC50,CHO [2],> 100 µM
CC1([C@@H](OC(=O)c2ccc(F)c3ccccc23)C(N)=O)CO1 (some centres not stated),IC50,CHO [1],2 µM
same,IC50,CHO [2],7 µM

# Reference: ChEMBL document CHEMBL3621198, “Probing cytochrome P450-mediated activation with a truncated azinomycin analogue” (Medchemcomm, 2015)
